Reference: ChEMBL document CHEMBL5729264, “Bicyclic compounds” (2022)

Experiment: Dual-Glo Luciferase Assay: The Dual-Glo Luciferase Reagent was prepared by transferring the contents of one bottle of Dual-Glo Luciferase Buffer to one bottle of Dual-Glo Luciferase Substrate to create the Dual-Glo Luciferase Reagent. Mixing was performed by inversion until the substrate was thoroughly dissolved. After mixing, the reagent was aliquoted into 15 ml tubes. In the afternoon (24 hrs post compound treatment), the DMEM+medium in the 384 well plates were aspirated by Microplate Washer.Measuring firefly luciferase activity: 20 ul Dual-Glo Luciferase Reagent was added to the 384-well plates. The plates were protected from light to prevent interference with the assay. The plates were shaken for 1 min followed centrifuging plates at 1000 rpm for 30 seconds. After waiting at least 10 minutes, the firefly luminescence was measured by Envision.Measuring renilla luciferase activity: 20 ul Stop-Glo Reagent was added to the 384-well plates. The plates were shaken for 1 min and then centrifuged at 1000 rpm for 30 seconds. After waiting at least 10 minutes, the renilla luminescence was measured by Envision.Compound IC50 and maximum inhibition on the firefly luciferase and renilla luciferase activities were reported separately.
In the case of CN(C#N)CCCNC(=O)c1ccc2c(Oc3ccc(C(F)(F)F)cc3)cccc2c1, the IC50 is reported as under 100 nM. Compound C[C@@H](NC(=O)c1ccc2c(Oc3ccc(C(F)(F)F)cc3)cccc2c1)c1ncc[nH]1 has an IC50 of under 100 nM. For CCN1CCC([C@@H](C)NC(=O)c2ccc3c(Oc4ccc(C(F)(F)F)cc4)cccc3c2)CC1, the IC50 was “in the range around 550 nM”. In the case of C[C@@H](NC(=O)c1ccc2c(Oc3ccc(C(F)(F)F)cc3)cccc2c1)C1CCN(CCF)CC1, the IC50 is reported as “in the range around 550 nM”. For C[C@@H](NC(=O)c1cnc2c(Oc3ccc(C(F)(F)F)cc3)cccc2c1)c1ccccn1, the IC50 was “in the range around 550 nM”. C[C@@H](NC(=O)c1ccc2c(Oc3ccc(C(F)(F)F)cc3)cccc2c1)c1cccc(N)n1 gave an IC50 of under 100 nM. For O=C(N[C@H](CCO)c1ccccn1)c1ccc2c(Oc3ccc(C(F)(F)F)cc3)cccc2c1, the IC50 was “in the range around 550 nM”. Work on C[C@H](NC(=O)c1ccc2c(Oc3ccc(C(F)(F)F)cc3)cccc2c1)C1CC1 yielded an IC50 of under 100 nM. In the case of N#CNC(=O)c1ccc2c(Oc3ccc(C(F)(F)F)cc3)cccc2c1, the IC50 is reported as “in the range around 550 nM”. Work on C[C@@H](NC(=O)c1ccc2c(Oc3ccc(C(F)(F)F)cc3)cccc2c1)C1COC1 yielded an IC50 of under 100 nM. C[C@H](NC(=O)c1cnc2c(Oc3ccc(C(F)(F)F)cc3)cccc2c1)c1ccccn1 gave an IC50 of under 100 nM. In the case of C[C@@H](NC(=O)c1ccc2c(Oc3ccc(C(F)(F)F)cc3)cccc2c1)C1CCN(CCO)CC1, the IC50 is reported as “in the range around 550 nM”. In the case of C[C@H](CN)NC(=O)c1ccc2c(Oc3ccc(C(F)(F)F)cc3)cccc2c1, the IC50 is reported as “in the range around 550 nM”. For O=C(N[C@@H](CO)c1ccccn1)c1ccc2c(Oc3ccc(C(F)(F)F)cc3)cccc2c1, the IC50 was “in the range around 550 nM”. For CNCCCNC(=O)c1ccc2c(Oc3ccc(C(F)(F)F)cc3)cccc2c1, the IC50 was under 100 nM. With C[C@@H](CCN)NC(=O)c1ccc2c(Oc3ccc(C(F)(F)F)cc3)cccc2c1 the IC50 was under 100 nM. For C[C@@H](NC(=O)c1ccc2c(Oc3ccc(C(F)(F)F)cc3)cccc2c1)c1nnn(C)n1, the IC50 was “in the range around 550 nM”. With COc1cc(Oc2ccc(C(F)(F)F)cc2)c2ncc(C(=O)N[C@H](C)CO)cc2c1 the IC50 was under 100 nM. In the case of C[C@@H](NC(=O)c1ccc2c(Oc3ccc(C(F)(F)F)cc3)cccc2c1)C1(F)CNC1, the IC50 is reported as “in the range around 550 nM”. For CNCCNC(=O)c1ccc2c(Oc3ccc(C(F)(F)F)cc3)cccc2c1, the IC50 was “in the range around 550 nM”. C[C@H](CO)NC(=O)c1cnc2c(Oc3ccc(C(F)(F)F)cc3)cc(F)c(F)c2c1 gave an IC50 of under 100 nM. Compound C[C@H](NC(=O)c1ccc2c(Oc3ccc(C(F)(F)F)cc3)cccc2c1)c1nnn(C)n1 has an IC50 of under 100 nM. With C[C@@H](NC(=O)c1ccc2c(Oc3ccc(C(F)(F)F)cc3)cccc2c1)c1nccn1C the IC50 was “in the range around 550 nM”. For C[C@H](NC(=O)c1ccc2c(Oc3ccc(C(F)(F)F)cc3)cccc2c1)c1nn[nH]n1, the IC50 was “in the range around 2000 nM”. In the case of C[C@@H](NC(=O)c1ccc2c(Oc3ccc(C(F)(F)F)cc3)cccc2c1)c1ccccn1, the IC50 is reported as “in the range around 550 nM”. Work on C[C@H](NC(=O)c1ccc2c(Oc3ccc(C(F)(F)F)cc3)cccc2c1)c1c[nH]cn1 yielded an IC50 of under 100 nM. In the case of C[C@H](NC(=O)c1ccc2c(Oc3ccc(C(F)(F)F)cc3)cccc2c1)C(N)=O, the IC50 is reported as under 100 nM. CNS(=O)(=O)c1ccc2c(Oc3ccc(Cl)c(Cl)c3)cccc2c1 showed an IC50 of under 100 nM. Work on O=C(NC1(c2ccccn2)CC1)c1ccc2c(Oc3ccc(C(F)(F)F)cc3)cccc2c1 yielded an IC50 of under 100 nM. CS(=O)(=O)NC(=O)c1ccc2c(Oc3ccc(C(F)(F)F)cc3)cccc2c1 gave an IC50 of under 100 nM. Compound CC(C)NC(=O)c1ccc2c(Oc3ccc(C(F)(F)F)cc3)cccc2n1 has an IC50 of under 100 nM. Compound C[C@@H](NC(=O)c1ccc2c(Oc3ccc(C(F)(F)F)cc3)cccc2c1)C1CCNCC1 has an IC50 of under 100 nM. CC(C)NC(=O)c1ccc2c(Oc3ccc(C(F)(F)F)cc3Cl)cccc2c1 gave an IC50 of under 100 nM. With C[C@@H](NC(=O)c1cnc2c(Oc3ccc(C(F)(F)F)cc3)cccc2c1)c1cccc2nc[nH]c12 the IC50 was “in the range around 550 nM”. Work on C[C@H](NC(=O)c1cc2cccc(Oc3ccc(C(F)(F)F)cc3)c2s1)c1ccccn1 yielded an IC50 of under 100 nM.
